This is an account of results in ChEMBL document CHEMBL4043209, “1-Phenyl-1H-indole derivatives as a new class of Bcl-2/Mcl-1 dual inhibitors: Design, synthesis, and preliminary biological evaluation” (Bioorg Med Chem, 2017).

Assay [1] deals with Apoptosis regulator Bcl-2 (Homo sapiens, UniProt P10415). The assay can be described thus: Inhibition of 5-FAM-Bid-BH3 peptide binding to Bcl2 (unknown origin) pre-incubated for 30 mins followed by further incubation with 5-FAM-Bid-BH3 peptide for 20 mins by fluorescence polarization assay.
The target of the next assay is Bcl-2-like protein 1 (Homo sapiens, UniProt Q07817). As to the kind of experiment: Inhibition of 5-FAM-Bid-BH3 peptide binding to Bcl-XL (unknown origin) pre-incubated for 30 mins followed by further incubation with 5-FAM-Bid-BH3 peptide for 20 mins by fluorescence polarization assay.
The next assay relates to K562. As to the kind of experiment: Antiproliferative activity against human K562 cells incubated for 48 hrs by MTT assay. In kind it is functional, cell-based. The note with it: K562, 48 h.
Another assay relates to MDA-MB-231. The assay can be described thus: Antiproliferative activity against human MDA-MB-231 cells incubated for 48 hrs by MTT assay. The format is functional, cell-based. To be noted: MDA-MB-231, 48 h.
The target in assay [2] is Induced myeloid leukemia cell differentiation protein Mcl-1 (Homo sapiens, UniProt Q07820). As to the kind of experiment: Inhibition of 5-FAM-Bid-BH3 peptide binding to Mcl1 (unknown origin) pre-incubated for 30 mins followed by further incubation with 5-FAM-Bid-BH3 peptide for 20 mins by fluorescence polarization assay.
The subject of the next assay is PC-3. The assay can be described thus: Antiproliferative activity against human PC3 cells incubated for 48 hrs by MTT assay. In kind it is functional, cell-based. To be noted: PC-3, 48 h.

Apoptosis regulator Bcl-2, sequence (P10415 whole entry): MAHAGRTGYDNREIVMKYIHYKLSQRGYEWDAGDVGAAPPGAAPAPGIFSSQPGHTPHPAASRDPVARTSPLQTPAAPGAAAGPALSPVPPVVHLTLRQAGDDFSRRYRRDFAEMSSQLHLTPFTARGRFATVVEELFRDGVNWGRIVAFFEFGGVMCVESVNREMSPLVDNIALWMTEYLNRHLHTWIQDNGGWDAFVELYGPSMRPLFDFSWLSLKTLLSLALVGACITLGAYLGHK
Bcl-2-like protein 1, sequence (Q07817 whole entry): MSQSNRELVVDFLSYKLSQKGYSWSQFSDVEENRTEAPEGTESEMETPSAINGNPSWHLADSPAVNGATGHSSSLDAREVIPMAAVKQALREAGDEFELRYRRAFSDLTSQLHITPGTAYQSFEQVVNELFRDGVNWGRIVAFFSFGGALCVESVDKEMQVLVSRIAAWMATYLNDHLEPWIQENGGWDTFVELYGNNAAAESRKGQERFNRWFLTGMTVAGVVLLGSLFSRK
Induced myeloid leukemia cell differentiation protein Mcl-1, sequence (Q07820 whole entry): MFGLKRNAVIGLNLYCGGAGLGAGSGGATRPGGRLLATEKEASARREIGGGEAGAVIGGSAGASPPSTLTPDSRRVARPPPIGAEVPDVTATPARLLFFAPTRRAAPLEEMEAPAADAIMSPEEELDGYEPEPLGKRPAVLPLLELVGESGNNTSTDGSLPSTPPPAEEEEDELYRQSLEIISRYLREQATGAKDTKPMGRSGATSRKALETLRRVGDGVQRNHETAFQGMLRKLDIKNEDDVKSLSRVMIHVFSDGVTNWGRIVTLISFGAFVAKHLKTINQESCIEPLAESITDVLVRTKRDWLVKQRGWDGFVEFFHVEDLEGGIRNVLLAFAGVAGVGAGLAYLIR

As for `COc1ccc2c(c1)c(CC(=O)N[C@@H](Cc1ccccc1)C(=O)NS(=O)(=O)c1ccc([N+](=O)[O-])cc1)c(C)n2-c1ccc(-c2ccccc2)cc1`, in assay [1], the Ki amounted to 0.91 µM.
On to `COc1ccc2c(c1)c(CC(=O)NS(=O)(=O)c1ccc(Cl)c([N+](=O)[O-])c1)c(C)n2-c1ccc(-c2ccccc2)cc1`, for which the Ki in assay [1] came to 0.72 µM.
With `COc1ccc(S(=O)(=O)NC(=O)Cc2c(C)n(-c3ccc(C)cc3)c3ccc(OC)cc23)cc1`, the Ki in assay [1] was > 10 µM.
Turning to `COc1ccc2c(c1)c(CC(=O)NS(=O)(=O)c1ccc(N3CCOCC3)c([N+](=O)[O-])c1)c(C)n2-c1ccc(C)cc1`, the Ki in assay [1] is > 10 µM.
Regarding `COc1ccc2c(c1)c(CC(=O)NS(=O)(=O)c1ccccc1)c(C)n2-c1ccc(-c2ccccc2)cc1`, the Ki in assay [1] was > 10 µM.
Consider `COc1ccc2c(c1)c(CC(=O)NS(=O)(=O)c1ccc(NC3CCCCC3)c([N+](=O)[O-])c1)c(C)n2-c1ccc(-c2ccccc2)cc1`, for which, in assay [1], the Ki was > 10 µM.
Regarding `COc1ccc2c(c1)c(CC(=O)N[C@@H](Cc1ccccc1)C(=O)NS(=O)(=O)c1ccccc1)c(C)n2-c1ccc(C)cc1`, in assay [1], the Ki is > 10 µM.
`COc1ccc2c(c1)c(CC(=O)N[C@@H](Cc1c[nH]c3ccccc13)C(=O)NS(=O)(=O)c1ccccc1)c(C)n2-c1ccc(-c2ccccc2)cc1`: the Ki in assay [1] is > 10 µM.
The same measure, in the same setting: as for `COc1ccc(S(=O)(=O)NC(=O)[C@H](Cc2c[nH]c3ccccc23)NC(=O)Cc2c(C)n(-c3ccc(-c4ccccc4)cc3)c3ccc(OC)cc23)cc1`, the figure is > 10 µM; as for `COc1ccc2c(c1)c(CC(=O)NS(=O)(=O)c1ccc(N3CCOCC3)c([N+](=O)[O-])c1)c(C)n2-c1ccc(-c2ccccc2)cc1`, > 10 µM.
The same measure, in the same setting: as for `COc1ccc(S(=O)(=O)NC(=O)Cc2c(C)n(-c3ccc(-c4ccccc4)cc3)c3ccc(OC)cc23)cc1`, the figure is > 10 µM; as for `COc1ccc2c(c1)c(CC(=O)NS(=O)(=O)c1ccc(NCc3ccccc3)c([N+](=O)[O-])c1)c(C)n2-c1ccc(C)cc1`, > 10 µM.
Still for that read-out and setting: next, `COc1ccc2c(c1)c(CC(=O)NS(=O)(=O)c1ccc(NCc3ccccc3)c([N+](=O)[O-])c1)c(C)n2-c1ccc(-c2ccccc2)cc1`: > 10 µM; `COc1ccc2c(c1)c(CC(=O)N[C@@H](Cc1ccccc1)C(=O)NS(=O)(=O)c1ccc(Cl)cc1)c(C)n2-c1ccc(-c2ccccc2)cc1`: 0.91 µM.
Turning to `COc1ccc(S(=O)(=O)NC(=O)[C@H](Cc2ccccc2)NC(=O)Cc2c(C)n(-c3ccc(-c4ccccc4)cc3)c3ccc(OC)cc23)cc1`, the inhibitory constant (Ki) entry is “Not Active” on Bcl-2-like protein 1, 0.88 µM in assay [2] and 0.47 µM in assay [1]. For the same compound, the IC50 with K562 amounted to 27.5 µM; in the assay on MDA-MB-231 it was 38.6 µM; in the assay with PC-3, 23.5 µM.
Turning to `Cc1ccc(S(=O)(=O)NC(=O)[C@H](Cc2ccccc2)N2C(=O)/C(=C/c3ccc(-c4ccccc4)cc3)SC2=S)cc1`, the Ki at Bcl-2-like protein 1 (read-out: Ki) was determined as 1.2 µM; in assay [2] it was 0.47 µM; in assay [1], 0.94 µM. For the same compound, the IC50 with K562 is 44 µM; in the assay with MDA-MB-231 it was 45.9 µM; in the assay with PC-3, 30.1 µM.
As to `COc1ccc2c(c1)c(CC(=O)N[C@@H](Cc1ccccc1)C(=O)NS(=O)(=O)c1ccc(-c3ccccc3)cc1)c(C)n2-c1ccc(-c2ccccc2)cc1`, the Ki in assay [1] is > 10 µM.
`COc1ccc2c(c1)c(CC(=O)NS(=O)(=O)c1ccc(N3CCN(C)CC3)c([N+](=O)[O-])c1)c(C)n2-c1ccc(C)cc1`: the Ki in assay [1] is > 10 µM.
Regarding `COc1ccc2c(c1)c(CC(=O)N[C@@H](Cc1ccccc1)C(=O)NS(=O)(=O)c1ccc(Cl)c([N+](=O)[O-])c1)c(C)n2-c1ccc(-c2ccccc2)cc1`, the Ki result on Bcl-2-like protein 1 was “Not Active”; in assay [2], 0.48 µM; in assay [1], 0.58 µM. In addition, the IC50 in the assay on K562 was found to be 13 µM; in the assay with MDA-MB-231, 42.1 µM; in the assay with PC-3 it was 13.9 µM.
In assay [1], `COc1ccc2c(c1)c(CC(=O)N[C@@H](Cc1c[nH]c3ccccc13)C(=O)NS(=O)(=O)c1ccc(Cl)c([N+](=O)[O-])c1)c(C)n2-c1ccc(-c2ccccc2)cc1` showed a Ki of 0.83 µM.
For the compound `COc1ccc2c(c1)c(CC(=O)N[C@@H](Cc1ccc(OCc3ccc([N+](=O)[O-])cc3)cc1)C(=O)NS(=O)(=O)c1ccc(Cl)c([N+](=O)[O-])c1)c(C)n2-c1ccc(C)cc1`, in assay [1], affinity was put at a Ki of 0.72 µM.
For the compound `COc1ccc2c(c1)c(CC(=O)NS(=O)(=O)c1ccc([N+](=O)[O-])cc1)c(C)n2-c1ccc(C)cc1`, the Ki in assay [1] is > 10 µM.
For `COc1ccc2c(c1)c(CC(=O)NS(=O)(=O)c1ccc(Cl)c([N+](=O)[O-])c1)c(C)n2-c1ccc(C)cc1`, in assay [1], the Ki is > 10 µM.
The same measure, in the same setting: next, `COc1ccc2c(c1)c(CC(=O)N[C@@H](Cc1ccc(OCc3ccc([N+](=O)[O-])cc3)cc1)C(=O)NS(=O)(=O)c1ccc(Cl)c([N+](=O)[O-])c1)c(C)n2-c1ccc(-c2ccccc2)cc1`: > 10 µM.
Turning to `COc1ccc2c(c1)c(CC(=O)N[C@@H](Cc1ccccc1)C(=O)NS(=O)(=O)c1ccccc1)c(C)n2-c1ccc(-c2ccccc2)cc1`, the Ki entry at Bcl-2-like protein 1 is “Not Active”; in assay [2], 0.96 µM; in assay [1], 0.35 µM. Also, the figures for the IC50 with K562, in the assay with MDA-MB-231 and in the assay on PC-3 were 18.8 µM, 33.5 µM and 17.5 µM, respectively.
For the compound `COc1ccc2c(c1)c(CC(=O)NS(=O)(=O)c1ccc(NCCSc3ccccc3)c([N+](=O)[O-])c1)c(C)n2-c1ccc(-c2ccccc2)cc1`, the Ki in assay [1] is > 10 µM.
For the compound `COc1ccc2c(c1)c(CC(=O)NS(=O)(=O)c1ccc(NCCCc3ccccc3)c([N+](=O)[O-])c1)c(C)n2-c1ccc(-c2ccccc2)cc1`, the Ki in assay [1] is > 10 µM.
